Measurements reported in paper PMC8219695 (Nature Communications, 2021).
Where “and” joins values, the source holds several entries; their conditions need not be identical. Equal values may be shown once.

Key:
WT C57 and MOR KO mice = test: Tail-flick in wild-type and MOR KO mice; assay type: in vivo, mouse; settings: individual animals
Experimental: CD1 mice (n = 10), at peak analgesic time point. […] Dose–response curves of 22 (s.c.), in the tail-flick assay was evaluated 15 min post drug administration in WT, C57 mice (n = 8) and MOR KO mice (n = 5). Each point represents mean ± SEM.
To confirm that the low-efficacy analgesia is driven by MOR, and no other targets or mechanisms (e.g., other opioid receptors or non-opioid off-targets), we performed the mouse tail-flick assay in wild-type (WT), and MOR knockout (MOR KO) mice with the same genetic background (Fig. 9e).
For analgesic testing in KO animals, wild-type, male C57BL/6 mice (22–33 g), 10–12 weeks were purchased from the Jackson Lab (Bar Harbor, ME). These mice were kept at a constant temperature of 22 ± 2 °C, and relative humidity was maintained at 40–50%. Exon-1/Exon-11 MOR-1 KO mice on a C57 background were bred in the Pintar laboratory at Rutgers University. All mice were maintained on a 12-hour light/dark cycle with food and water available ad libitum, and housed in groups of five until testing. All testing was done in the light cycle.
Analgesia was tested in wild-type and MOR KO animals by the radiant heat tail-flick technique using an IITC Model 33 Tail Flick Analgesia Meter as previously described. The intensity was set to achieve a baseline between 2 and 3 s. Tail-flick antinociception was assessed as an increase in baseline latency, with a maximal 10 s latency to minimize damage to the tail. Data were analyzed as percent maximal effect, % MPE, which was calculated according to the formula: % MPE [(observed latency − baseline latency)/(maximal latency − baseline latency)] × 100. Compounds were administered s.c. as indicated in the figures, and analgesia was assessed at the peak effect (15 min). Mice were tested for analgesia with cumulative subcutaneous doses of the drug until the mouse can withstand the maximal latency. Once the mouse reached the maximal latency, the mouse was no longer given higher doses. In vivo experiments were evaluated using GraphPad Prism 8, San Diego, CA as described above. […]
dilution series was prepared for the desired doses of 0.1, 0.3, 1, 3, and 10 mg/kg (concentrations 0.01 mg/mL, 0.03 mg/mL, 0.1 mg/mL, 0.3 mg/mL, and 1 mg/mL respectively). Solutions were filtered through a PTFE 0.45μm syringe filter and administered s.c. at a max volume of 300μL.
Tail Flick (Dose – response)
Tail flick antinociception was determined using the radiant heat tail flick technique using an Ugo Basile model 37360 instrument as previously described.21,22 The intensity was set to achieve a baseline between 2 and 3 s. Baseline latencies were determined before experimental treatments for all mice. Tail flick antinociception was assessed as an increase in baseline latency, with a maximal 15 s latency to minimize damage to the tail. Data were analyzed as percent maximal effect, %MPE, and was calculated according to the formula: % MPE = [(observed latency – baseline latency)/(maximal latency – baseline latency)] × 100.
Compounds were injected subcutaneously (s.c.) and antinociception was assessed at the peak effect. Mice were tested for analgesia with cumulative subcutaneous doses of the drug until the mouse can withstand the maximal latency. Once the mouse reached the maximal latency, the mouse was no longer given higher doses. The analgesia experiments were performed by blinding the experimenter to the identity of 7OH versus 11-F-7OH. In vivo experiments were evaluated using GraphPad Prism 8, San Diego, CA as described […]
Analgesia was tested in wild-type and MOR KO animals by the radiant heat tail-flick technique using an IITC Model 33 Tail Flick Analgesia Meter as previously described.23 The intensity was set to achieve a baseline between 2 and 3 s. Tail flick antinociception was assessed as an increase in baseline latency, with a maximal 10 s latency to minimize damage to the tail. Data were analyzed as percent maximal effect, %MPE, which was calculated according to the formula: % MPE [(observed latency − baseline […]

hDOR = hDOR (Homo sapiens, UniProt P41143); test: CAMYEL BRET antagonism assay at hDOR (inhibition of DPDPE); assay type: cell-based; settings: for Antagonist activity at the hDOR (raw signal): individual replicates, Supplementary Figure 9A source data
Chain of hDOR (P41143 whole entry): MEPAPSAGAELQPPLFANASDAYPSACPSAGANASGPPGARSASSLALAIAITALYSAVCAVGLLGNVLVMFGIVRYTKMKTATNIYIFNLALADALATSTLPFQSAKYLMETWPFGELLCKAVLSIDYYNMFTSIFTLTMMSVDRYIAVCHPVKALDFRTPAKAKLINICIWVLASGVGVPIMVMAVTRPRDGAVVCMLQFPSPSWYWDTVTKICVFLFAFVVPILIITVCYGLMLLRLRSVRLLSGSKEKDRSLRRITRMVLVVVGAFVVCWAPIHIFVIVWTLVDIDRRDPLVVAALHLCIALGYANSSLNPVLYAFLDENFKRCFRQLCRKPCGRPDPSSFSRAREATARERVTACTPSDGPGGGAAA

Row | Structure (SMILES) | Antinociceptive effect, MOR KO (WT C57 and MOR KO mice; dose 0.1) | Antinociceptive effect, MOR KO (WT C57 and MOR KO mice; dose 0.3) | Antinociceptive effect, MOR KO (WT C57 and MOR KO mice; dose 1) | Antinociceptive effect, MOR KO (WT C57 and MOR KO mice; dose 3) | Antinociceptive effect, MOR KO (WT C57 and MOR KO mice; dose 10) | Antinociceptive effect, Wild Type (WT C57 and MOR KO mice; dose 0.1) | Antinociceptive effect, Wild Type (WT C57 and MOR KO mice; dose 0.3) | Antinociceptive effect, Wild Type (WT C57 and MOR KO mice; dose 1) | Antinociceptive effect, Wild Type (WT C57 and MOR KO mice; dose 3) | Antinociceptive effect, Wild Type (WT C57 and MOR KO mice; dose 10) | Antagonist activity at the hDOR (raw signal) (hDOR; Log[drug] (M) -5, against EC80 DPDPE) | Antagonist activity at the hDOR (raw signal) (hDOR; Log[drug] (M) -6, against EC80 DPDPE) | Antagonist activity at the hDOR (raw signal) (hDOR; Log[drug] (M) -7, against EC80 DPDPE) | Antagonist activity at the hDOR (raw signal) (hDOR; Log[drug] (M) -8, against EC80 DPDPE) | Antagonist activity at the hDOR (raw signal) (hDOR; Log[drug] (M) -9, against EC80 DPDPE) | Antagonist activity at the hDOR (raw signal) (hDOR; Log[drug] (M) -10, against EC80 DPDPE) | Antagonist activity at the hDOR (raw signal) (hDOR; Log[drug] (M) -11, against EC80 DPDPE) | antagonism at hDOR (hDOR; inhibition of reference agonist DPDPE (EC80))
1 | CC[C@@H]1CN2CC[C@@]3(O)C(=Nc4cc(F)cc(OC)c43)[C@@H]2C[C@@H]1/C(=C\OC)C(=O)OC [11-F-7OH (22), 11-Fluoro-7-hydroxymitragynine] | 40.7407 and 22.4138 and -2.941 and 22.6277 and 21.0084 | 14.0741 and 33.6207 and 22.0588 and 13.1387 and 14.2857 | 30.3704 and 1.724 and 19.8529 and 38.6861 and -26.8908 | 30.3704 and -6.897 and 22.0588 and 27.0073 and 1.681 | 100 and 18.1034 and -5.882 and 26.2774 and -0.8403 | 7.432 and 25.9259 and 5.926 and 9.722 and -11.5108 and 0 and 3.521 and -7.971 | 22.2973 and 19.2593 and 0 and 16.6667 and -0.7194 and 4.895 and -7.746 and 40.5797 | 71.6216 and -1.481 and 44.4444 and 10.4167 and 5.036 and 71.3287 and 100 and 14.4927 | 100 (3×) and 5.185 and 43.7037 and 11.1111 and 41.0072 and -2.899 | 62.1622 and 30.3704 and 25.1852 and 100 (2×) and 12.2302 and 25.1748 and 47.1014 | – | – | – | – | – | – | – | –
2 | CC[C@@H]1CN2CC[C@@]3(O)C(=Nc4cc(Br)cc(OC)c43)[C@@H]2C[C@@H]1/C(=C\OC)C(=O)OC [11-Br-7OH (24), 11-Br-7OH] | – | – | – | – | – | – | – | – | – | – | 0.02104 and 0.01573 and 0.009966 and -0.01593 and -0.01928 and -0.02427 and 0.02048 and 0.01948 and 0.01559 | 0.04515 and 0.04385 and 0.04449 and 0.03157 and 0.04067 and 0.05399 and 0.01786 and 0.03044 and 0.02432 | 0.1057 and 0.11 and 0.09817 and 0.09774 and 0.0895 and 0.09531 and 0.04711 and 0.02047 and 0.02787 | 0.1076 and 0.1055 and 0.1083 and 0.107 and 0.1014 and 0.09451 and 0.04651 and 0.03638 and 0.03747 | 0.1047 and 0.1019 and 0.1172 and 0.09234 and 0.1022 and 0.1004 and 0.02352 and 0.04174 and 0.03714 | 0.1014 and 0.1021 and 0.1072 and 0.1078 and 0.1042 and 0.1009 and 0.03392 and 0.02253 and 0.04348 | 0.122 and 0.117 and 0.1095 and 0.09539 and 0.09115 and 0.09894 and 0.04038 and 0.02714 and 0.0351 | full inhibition
